# Measurements as given in patent publication US20250221966A1, “RXFP1 AGONISTS” (BRISTOL-MYERS SQUIBB COMPANY, priority 2021, published 2025).
# Target: T1, human RXFP1 (Homo sapiens, UniProt Q9HBX9)
# T1 construct: expressed in transfected cells
# T1 sequence (Q9HBX9 1-757): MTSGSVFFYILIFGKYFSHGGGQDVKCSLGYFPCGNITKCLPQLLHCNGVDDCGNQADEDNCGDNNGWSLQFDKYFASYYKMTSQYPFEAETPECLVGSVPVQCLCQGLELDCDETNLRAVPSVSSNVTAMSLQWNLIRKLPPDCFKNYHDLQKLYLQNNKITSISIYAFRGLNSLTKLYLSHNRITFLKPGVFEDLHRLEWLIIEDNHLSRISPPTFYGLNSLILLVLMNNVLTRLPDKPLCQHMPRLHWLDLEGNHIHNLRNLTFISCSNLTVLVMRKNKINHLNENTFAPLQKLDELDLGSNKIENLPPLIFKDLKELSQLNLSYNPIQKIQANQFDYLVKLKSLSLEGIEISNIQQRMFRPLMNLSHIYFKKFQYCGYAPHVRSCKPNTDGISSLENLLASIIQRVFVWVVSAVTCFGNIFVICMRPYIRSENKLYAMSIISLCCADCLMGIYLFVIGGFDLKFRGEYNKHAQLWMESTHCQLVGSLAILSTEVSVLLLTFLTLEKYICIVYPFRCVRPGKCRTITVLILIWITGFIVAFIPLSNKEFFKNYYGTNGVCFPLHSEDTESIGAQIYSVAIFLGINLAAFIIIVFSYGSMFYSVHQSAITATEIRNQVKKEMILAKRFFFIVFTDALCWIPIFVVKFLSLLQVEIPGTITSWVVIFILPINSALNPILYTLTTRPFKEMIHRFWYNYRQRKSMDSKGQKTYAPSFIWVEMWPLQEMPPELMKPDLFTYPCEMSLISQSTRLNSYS
# Assay: RXFP1 cAMP assay (hRXFP1 HEK293 cAMP assay, HTRF)
# Assay type: cell-based
# Settings: HEK293 cells stably expressing human RXFP1, 30 min at room temperature, read-out: cAMP hRXFP1 HEK293 Assay EC50
# Procedure, shortened: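 HEK293 cells stably expressing human RXFP1 (1500 cells/well) in HBSS/20 mM HEPES/0.05% BSA/0.5 mM IBMX. Compounds were tested at 0.010 nM–50 μM final (2% DMSO) for 30 min at room temperature. cAMP was measured by HTRF and values derived by 4-parameter logistic fit.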
row,SMILES,EC50 [nM]
1,COc1ccc(-c2cc(C(C)OC(=O)Nc3ccc(F)cc3)ccc2F)cc1C(=O)N[C@@H]1C2CCC(/C2=C/C2CC2)[C@@H]1C(=O)Nc1ccc(F)c(C(F)(F)F)c1 (some centres unmarked) [compound 226],3
2,COc1ccc(C2=NO[C@@H]3C[C@H](CO)CN23)cc1C(=O)N[C@H]1[C@@H](C(=O)Nc2ccc(F)c(C(F)(F)F)c2)[C@H]2CC[C@@H]1/C2=C\C1CC1 [compound 846],1.8
3,CNC(=O)/C=C1\C2CCC1[C@H](C(=O)Nc1ccc(F)c(C(F)(F)F)c1)[C@@H]2NC(=O)c1cc(F)c(F)cc1OC (some centres unmarked) [compound 73],2400
4,"COc1ccc(C2=NOC3CC(C(C)(C)O)CC23)cc1C(=O)N[C@H]1[C@@H](C(=O)Nc2ccc(F)c(C(F)(F)F)c2)[C@H]2CC[C@@H]1/C2=C\C1CC1 (single isomer, unassigned) [compound 462]",3
5,"COc1ccc(C2=NOC(C(C)(C)O)C2)cc1C(=O)N[C@H]1[C@@H](C(=O)Nc2ccc(F)c(C(F)(F)F)c2)[C@H]2CC[C@@H]1/C2=C\C1CC1 (single isomer, unassigned) [compound 573]",67.4
6,COc1ccc(-c2cc(C(NC(C)=O)C(=O)O)ccc2F)cc1C(=O)N[C@@H]1C2CCC(/C2=C/C2CC2)[C@@H]1C(=O)Nc1ccc(F)c(C(F)(F)F)c1 (some centres unmarked) [Example 182],5
7,COc1ccc(C2CCCN2)cc1C(=O)N[C@@H]1C2CCC(C2=CC2CC2)[C@@H]1C(=O)Nc1ccc(F)c(C(F)(F)F)c1 (some centres unmarked) [compound 720],3140
8,"COc1ccc(C2=NOC3CN(CCO)CC23)cc1C(=O)N[C@H]1[C@@H](C(=O)Nc2ccc(F)c(C(F)(F)F)c2)[C@H]2CC[C@@H]1/C2=C\C1CC1 (single isomer, unassigned) [compound 455]",2
9,COc1ccc(-c2ccnc3c2ncn3CC(=O)O)cc1C(=O)N[C@@H]1C2CCC(/C2=C/C(F)(F)F)[C@@H]1C(=O)Nc1ccc(F)c(C(F)(F)F)c1 (some centres unmarked) [compound 314],5
10,COc1ccc(C2=NOC(C)(C)N2C(C)C)cc1C(=O)N[C@H]1[C@@H](C(=O)Nc2ccc(F)c(C(F)(F)F)c2)[C@H]2CC[C@@H]1/C2=C\C1CC1 [Example 591],86.6
11,COc1ccc(-c2ccc(N3CCOCC3)nc2)cc1C(=O)N[C@@H]1C2CCC(/C2=C/C2CC2)[C@@H]1C(=O)Nc1ccc(F)c(C(F)(F)F)c1 (some centres unmarked) [compound 250],12
12,COc1ccc(C2=NOC3CC(CF)CC23)cc1C(=O)N[C@H]1[C@@H](C(=O)Nc2ccc(F)c(C(F)(F)F)c2)[C@H]2CC[C@@H]1/C2=C\C1CC1 (some centres unmarked) [compound 866],4.8
13,COc1ccc(-c2ccc(CC(=O)O)cc2)cc1C(=O)N[C@@H]1C2CCC(/C2=C/c2cnoc2)[C@@H]1C(=O)Nc1ccc(F)c(C(F)(F)F)c1 (some centres unmarked) [compound 188],20
14,COc1ccc(-c2ccncc2OC)cc1C(=O)N[C@H]1[C@@H](C(=O)Nc2ccc(F)c(C(F)(F)F)c2)[C@H]2CC[C@@H]1C2=C(C)C [compound 89],330
15,COc1cc(F)c(F)cc1C(=O)N[C@@H]1C2CCC([C@@H]1C(=O)Nc1ccc(F)c(C(F)(F)F)c1)C21OCCO1 (some centres unmarked) [Example 147],1800
16,"CN(C)c1c(Cl)cc(C2=NOC3COCC23)cc1C(=O)N[C@H]1[C@@H](C(=O)Nc2ccc(F)c(C(F)(F)F)c2)[C@H]2CC[C@@H]1/C2=C\C(F)(F)F (single isomer, unassigned) [compound 670]",448
17,COc1ccc(-c2cccc(S(C)(=O)=O)c2)cc1C(=O)N[C@H]1[C@@H](C(=O)Nc2ccc(F)c(C(F)(F)F)c2)[C@H]2CC[C@@H]1/C2=C\C1CC1 [compound 898],3.9
18,COc1ccc(-c2cc([C@H](O)C(F)(F)F)ccc2F)cc1C(=O)N[C@H]1[C@@H](C(=O)Nc2ccc(F)c(C(F)(F)F)c2)[C@H]2CC[C@@H]1/C2=C\C1CCC1 [compound 921],8.2
19,COc1ccc(C2=NOC3COCC23)cc1C(=O)N[C@H]1[C@@H](C(=O)NC2(CO)CCCC2)[C@H]2CC[C@@H]1/C2=C\C1CC1 (some centres unmarked) [compound 651],269

row,SMILES,EC50 [nM]
1,COc1ccc(C2=NOC3COCC23)cc1C(=O)N[C@H]1[C@@H](C(=O)Nc2ccc(F)c(C(F)(F)F)c2)[C@H]2CC[C@@H]1/C2=C\c1cnoc1 (some centres unmarked) [compound 802],3
2,"COc1ccc(N2CCC(NC(=O)C3CCOCC3)C2)cc1C(=O)N[C@@H]1C2CCC(/C2=C/C(F)(F)F)[C@@H]1C(=O)Nc1ccc(F)c(C(F)(F)F)c1 (single isomer, unassigned) [compound 337]",2080
3,"Cc1ccc(C2=NOC3COCC23)cc1C(=O)N[C@H]1[C@@H](C(=O)Nc2ccc(F)c(C(F)(F)F)c2)[C@H]2CC[C@@H]1/C2=C\C1CC1 (single isomer, unassigned) [compound 716]",1980
4,COc1c(F)cc(C2=NOC3CC(CO)CC23)cc1C(=O)N[C@H]1[C@@H](C(=O)Nc2ccc(F)c(C(F)(F)F)c2)[C@H]2CC[C@@H]1/C2=C\C1CC(F)(F)C1 (some centres unmarked) [compound 918],5.5
5,COc1ccc(C2=NOC(CC(=O)O)C2)cc1C(=O)N[C@@H]1C2CCC(/C2=C/C2CC2)[C@@H]1C(=O)Nc1ccc(F)c(C(F)(F)F)c1 (some centres unmarked) [compound 391],49
6,COc1ccc(C2=NO[C@H]3CC(CO)C[C@@H]23)cc1C(=O)N[C@H]1[C@@H](C(=O)Nc2ccc(F)c(C(F)(F)F)c2)[C@H]2CC[C@@H]1/C2=C\CCC1CC1 (some centres unmarked) [compound 824],2.9
7,"COc1ccc(C2CCN(C(=O)C(C)(C)O)C2)cc1C(=O)N[C@H]1[C@@H](C(=O)Nc2ccc(F)c(C(F)(F)F)c2)[C@H]2CC[C@@H]1/C2=C\C1CC1 (single isomer, unassigned) [Example 449]",1.6
8,CC(C)=C1C2CCC1[C@H](C(=O)Nc1ccc(F)c(C(F)(F)F)c1)[C@@H]2NC(=O)c1ccccc1N(C)C (some centres unmarked) [compound 119],3900
9,COc1ccc(-c2cc(C(OC(C)=O)C(=O)O)ccc2F)cc1C(=O)N[C@@H]1C2CCC(/C2=C/c2cnoc2)[C@@H]1C(=O)Nc1ccc(F)c(C(F)(F)F)c1 (some centres unmarked) [Example 178],11
10,"COc1ccc(-c2cc(C(NC(=O)C3CCOCC3)C(=O)O)ccc2F)cc1C(=O)N[C@H]1[C@@H](C(=O)Nc2ccc(F)c(C(F)(F)F)c2)[C@H]2CC[C@@H]1/C2=C\C1CC1 (stereo partly drawn) [Example 238, 2-(3′-(((1R,2R,3S,4R,Z)-7-(cyclopropylmethylene)-3-((4-fluoro-3-(trifluoromethyl)phenyl)carbamoyl)bicyclo[2.2.1]heptan-2-yl)carbamoyl)-6-fluoro-4′-methoxy-[1,1′-biphenyl]-3-yl)-2-(tetrahydro-2H-pyran-4-carboxamido)acetic acid]",1
11,CNC(=O)OC(c1ccc(F)c(-c2ccc(OC)c(C(=O)N[C@@H]3C4CCC(/C4=C/C4CC4)[C@@H]3C(=O)Nc3ccc(F)c(C(F)(F)F)c3)c2)c1)C(F)(F)F (some centres unmarked) [compound 212],1
12,COc1ccc([C@H]2CO[C@@H]3[C@H]2OC[C@H]3O)cc1C(=O)N[C@H]1[C@@H](C(=O)Nc2ccc(F)c(C(F)(F)F)c2)[C@H]2CC[C@@H]1/C2=C\C1CC1 [compound 638],207
13,COc1ccc(C2=NOC3COCC23)cc1C(=O)N[C@H]1[C@@H](C(=O)Nc2ccc(F)c(C(F)(F)F)c2)[C@H]2CC[C@@H]1/C2=C\c1csc(C)n1 (some centres unmarked) [compound 806],4.9
14,"COc1ccc(C2=NOC3C(O)CC(O)C23)cc1C(=O)N[C@H]1[C@@H](C(=O)Nc2ccc(F)c(C(F)(F)F)c2)[C@H]2CC[C@@H]1/C2=C\C1CC1 (stereo partly drawn) [Example 413, (1R,2S,3R,4R,Z)-7-(cyclopropylmethylene)-3-(5-(4,6-dihydroxy-3a,5,6,6a-tetrahydro-4H-cyclopenta[d]isoxazol-3-yl)-2-methoxybenzamido)-N-(4-fluoro-3-(trifluoromethyl)phenyl)bicyclo[2.2.1]heptane-2-carboxamide]",39
15,COc1ccc(C2=NOC3COCC23)cc1C(=O)N[C@H]1[C@@H](C(=O)NC2CCC2)[C@H]2CC[C@@H]1/C2=C\C1CC1 (some centres unmarked) [compound 635],191
16,O=C(N[C@H]1C(C(=O)Nc2ccc(F)c(C(F)(F)F)c2)[C@H]2CC[C@@H]1/C2=C\C1CC1)c1cc(C2=NOC3COCC23)ccc1OCC(F)F (some centres unmarked) [compound 785],4
17,COCCCOc1c(F)cc(C2=NOC3COCC23)cc1C(=O)N[C@H]1[C@@H](C(=O)Nc2ccc(F)c(C(F)(F)F)c2)[C@H]2CC[C@@H]1/C2=C\C1CC1 (some centres unmarked) [compound 778],1.1
18,COc1ccc(C2=NO[C@H]3CC(CO)C[C@@H]23)cc1C(=O)N[C@H]1[C@@H](C(=O)Nc2ccc(F)c(C(F)(F)F)c2)[C@H]2CC[C@@H]1/C2=C\C1CC(F)(F)C1 (some centres unmarked) [compound 840],4.5

# Same assay, conditions: cAMP hRXFP1 HEK293 Assay EC50, HEK293 cells stably expressing human RXFP1, 30 min at room temperature
row,SMILES,EC50 [nM]
1,COc1cc(F)c(F)cc1C(=O)N[C@@H]1C2CCC(/C2=C2\C=Cc3ccccc32)[C@@H]1C(=O)Nc1ccc(F)c(C(F)(F)F)c1 (some centres unmarked) [Example 33],310
